Structures are written as SMILES.

What is called melting point is the temperature of the solid-liquid transition. In turn, `COC(=O)Cn1c(=O)c(=O)[nH]c2cc(C(F)(F)F)c(-n3cccc3)cc21` yielded a melting point of 141 to 142 °C. In the case of `O=C(CCCCOCc1ccccc1)c1ccc([N+](=O)[O-])cc1` it was 75 °C; in that of `COCCOCc1c(CN(C)CC(O)c2ccc(C#N)s2)sc2c(=O)c(C(=O)NCc3ccc(Cl)cc3)cn(C)c12` (stereo not drawn), 163 to 164 °C; in that of `C=Cc1cc(CNC(=O)C(C)=Cc2ccc(C(C)(C)C)cc2)cc(F)c1NS(C)(=O)=O`, 136 to 138 °C. For `CCn1cc(C(=O)O)c(=O)c2cnc(N3CCN(C(C)=O)CC3)nc21` the value was 298 to 300 °C; for `Cc1nc2c(N)nc3cccnc3c2n1CC(C)C`, 228 to 230 °C; for `O=C(CCCCCNC(=O)c1ccc2ccccc2c1)NO`, 96 to 98 °C.

`COc1ccc(C=C(Br)Br)cc1OC(C)C`: the melting point was in the range of 67 to 69 °C.

For `CCOC(=O)c1cc2cc(F)cc(Br)c2[nH]1`, the melting point stood at 125 °C. In the case of `Cc1cnc(CNC(=O)c2sc(N3C[C@@H](C)N(Cc4cc(F)cc(F)c4)C3=O)nc2C)cn1` it was 131 to 132 °C; in that of `CCCc1c(OCc2cccn3c(=O)c(C#N)cnc23)ccc(C(C)=O)c1O`, 233 to 234 °C.

Consider `Cc1c(-c2ccc(NC(=O)C(C)C)cc2)sc2ncc(C(=O)C(C)C)c(O)c12`, for which the melting point lay in the range of 247 to 249 °C.

Regarding `CCOCc1cnc2c(NC(=O)c3c(Cl)cccc3Cl)cccc2c1N1CCN(C)C1=O`, the melting point is 173 to 177 °C. In the case of `CCCCOc1cc2c(cc1C=Cc1ccc(C(=O)O)cc1)C(C)(C)CCC2(C)C` it was 194 to 196 °C.

In the case of `COc1cccc(OC)c1C(=O)Nc1ccc(C(=O)O)cc1`, the melting point was in the range of 236 to 240 °C. In the case of `N[C@@]1(C(=O)O)C[C@H](NC(=O)Nc2ccc(Cl)cc2)[C@H]2[C@H](C(=O)O)[C@H]21` (relative stereo) it was above 250 °C; in that of `CCCCCCSC(=S)N1Cc2[nH]c3ccccc3c2CC1CO` (stereo not drawn), 102 to 106 °C; in that of `CCn1cc(C(=O)O)c(=O)c2cc(F)c(N3CCNC(c4ccco4)C3)cc21` (stereo not drawn), 198 °C. For `NC(=O)C[C@H](NS(=O)(=O)c1ccc2c(c1)Sc1ccccc1O2)C(=O)O` the value was 165 to 175 °C. For `COc1cc(NC(=O)N(Cc2ccccc2)C2CCCCC2)c(OC(C)=O)c(C(C)(C)C)c1` the value was 129 to 132 °C; for `O=C(/C=C/c1ccsc1)N1CCOCC1`, 141 to 142 °C. Compound `CC(C)(CO)NS(=O)(=O)c1ccc(Cl)s1` displayed a melting point of 112 °C.

`COc1cc2c(c3c1OC(C)(C)C3)C(c1cccc(C#N)c1)=NCC2(C)C` displayed a melting point of 178 to 180 °C. On to `O=C(Cc1ccccc1SCc1ccccc1)Nc1ccccc1`, for which the melting point fell in the range of 81 to 83 °C. For `Cc1cccc(C)c1N(CC(C)N1C(=O)c2ccccc2C1=O)S(C)(=O)=O` (stereo not drawn) the value was 124 to 127 °C; for `Cc1cc(C)nc(NC(=O)Cc2cc(Br)sc2Br)c1`, 109 °C. For `CC(C)(C)[Si](C)(C)OCc1cccc(-c2ccc3nc(Cl)cn3c2)c1` the value was 120 to 123 °C; for `CCOC(=O)c1ncc2[nH]c3cccc(Cc4ccccc4)c3c2c1COC`, 160 to 168 °C; for `CCC(=O)NC[C@H]1CN(c2ccc3c(c2)CCCc2cn[nH]c2-3)C(=O)O1`, 233 to 235 °C. `CCOC(=O)C1=C(C)NC(c2csc(C)n2)=NC1c1cccc(Cl)c1` (stereo not drawn) displayed a melting point of 143 to 144 °C. For the compound `OCc1c(Cl)nc(C2CCCCC2)n1Cc1ccccc1`, the melting point lay in the range of 160 to 161 °C. In the case of `Cc1ccc(CNC(=O)C(=O)NCCc2ccccn2)n1C` it was 147 to 149 °C. In the case of `COc1cc2ncc(C#N)c(Nc3c(C)cccc3O)c2cc1OC` it was 245 to 247 °C; in that of `C#CCOc1nc(-n2nc3ccc(Cl)cn3c2=O)c(F)cc1C#N`, 207 to 209 °C; in that of `CN(C)S(=O)(=O)c1cc(-c2csc(=Nc3ccccc3)n2C2CCCCC2)ccc1Cl`, 148 °C. In the case of `CCC(C)C(Cl)C(=O)Oc1ccc(C(=O)O)cc1` (stereo not drawn) it was 97 to 100 °C; in that of `O=C(Nc1cc(C(F)(F)F)c[nH]c1=O)c1ccccc1`, 207 to 210 °C. The compound `Fc1cccc2c(OCCc3ccc(Cl)cc3)ccnc12` displayed a melting point of 139 to 140 °C. Compound `COc1cc(OC)c(-c2ccc(C)s2)cc1C=CC(=O)c1ccc(C(=O)O)cc1` came in with a melting point of 213 to 215 °C. For `CSc1ncc(CN)c(NC2CCCC2)n1` the value was 58 to 60 °C; for `CN1CCC(OC(c2ccccc2)c2nc3ccccc3s2)CC1` (stereo not drawn), 115 °C. For `O=c1[nH]c(-c2ccc(CCN3CCN(c4cccc(C(F)(F)F)c4)CC3)cc2)cs1` the value was 285 to 287 °C; for `CC(Cc1ccccc1)C1CC=C2C3=C(CCC21C)C1(C)CCC(O)CC1CC3` (stereo not drawn), 156 to 157 °C. For `O=C(c1ccc(F)cc1)C1CCN(CCn2c(=O)[nH]c3sccc3c2=O)CC1` the value was 231 to 235 °C.

With `CCCc1nnc(N2N=C(c3ccc([N+](=O)[O-])c(C)c3)c3cc4c(cc3C[C@H]2C)OCO4)s1`, the melting point was 143 to 145 °C. In the case of `O=c1[nH]c(-c2c[nH]c3ccccc23)nc2ccc(N3CCCC3)cc12` it was 298 °C. In the case of `CCn1nc(C)c(CN(C(=O)C2CCCc3ccccc32)c2ccc(C(C)C)cc2)c1C` (stereo not drawn) it was 142 to 143 °C; in that of `COc1ccc(-c2cc(=Nc3ccc(OCC4CO4)cc3)n(C)c(=O)n2C)cc1OC` (stereo not drawn), 155 to 157 °C. For `O=C(NCCN1CCCC1)N1CCN(c2ccccc2)CC1` the value was 81.5 to 84 °C. For the compound `Brc1ccc(N2CCC3(CCNCC3)CC2)nc1`, the melting point is 103 to 105 °C. `CCCc1nc2c(N)nc(C)c(C)c2n1NC1CCCCC1` came in with a melting point of 177 to 179 °C. For `CCOc1ccc([N+](=O)[O-])c(NC23CC4CC(CC(C4)C2)C3)c1` the value was 147 °C; for `CC(C)=CCN1CCc2c(sc(N)c2C(=O)c2ccc(Cl)cc2)C1`, 118 to 120 °C. In the case of `C=CCCC(C#N)(C#N)Cc1ccc(OCC=C)cc1` it was 77.7 °C; in that of `COc1ccccc1N1CCN(CC(C(=O)O)c2ccccc2)CC1` (stereo not drawn), 160 to 163 °C. In the case of `O=[N+]([O-])c1cc(Cl)ccc1NCCSSCCNc1ccc(Cl)cc1[N+](=O)[O-]` it was 187 to 188 °C; in that of `O=C1c2ccccc2CN1C1CCN(c2ccc(C(OCc3ccncc3)c3ccccc3)cc2)CC1` (stereo not drawn), 77 to 81 °C; in that of `CN1C(=O)C(C)(C)N=C(c2ccccc2F)c2c1ccc(N)c2Br`, 217 to 220 °C.

`O=S(CC1CO1)c1ncc(Cl)cn1` (stereo not drawn) returned a melting point of 92 °C. For `CSc1ccc2ncccc2c1N` the value was 88.5 to 90.5 °C. For `C=C1CCC2C3CC(=O)c4cc(OC(C)=O)ccc4C3CCC12C` (stereo not drawn) the value was 91 to 94 °C. In turn, `COc1cccc(Nc2n[nH]c3ncnc(Nc4cccc(Cl)c4)c23)c1` gave a melting point of 202 to 203 °C. In the case of `CN1C(=O)CNC(c2cccc(Cl)c2)c2cc(C(O)(c3ccc(Cl)cc3)c3cncn3C)ccc21` (stereo not drawn) it was 208 °C.

The record behind these values is a melting point compilation (Tetko et al.; mined from patent text by program, amines drawn as free bases though some values may be those of a salt).
